Results on twelve compounds are retold here after ChEMBL document CHEMBL1128211, “3D-quantitative structure-activity relationships of human immunodeficiency virus type-1 proteinase inhibitors: comparative molecular field analysis of 2-heterosubstituted statine derivatives-implications for the design of novel inhibitors” (J Med Chem, 1995).

The assay addresses Human immunodeficiency virus type 1 protease (Human immunodeficiency virus 1, UniProt Q72874). As to the kind of experiment: Inhibitory activity was determined against HIV type 1 protease.
One may read the Ki as a measure of affinity in units of concentration, obtained from inhibition or displacement. `CC(C)[C@H](NC(=O)OCc1ccccc1)C(=O)N[C@@H](Cc1ccccc1)[C@@H](O)[C@@H](NCc1ccccc1)C(=O)N[C@H](C(=O)NCc1cccnc1)C(C)C` had a Ki of 0.0135 µM. The result for `CC(C)[C@H](NC(=O)[C@H](NCc1ccc(Cl)cc1)[C@H](O)[C@H](Cc1ccccc1)NC(=O)OC(C)(C)C)C(=O)NCc1nc2ccccc2[nH]1` reads 0.011 µM; that for `CC(C)[C@H](NC(=O)[C@H](NCc1ccccc1)[C@H](O)[C@H](Cc1ccccc1)NC(=O)[C@@H](NC(=O)c1nc2c(F)cccc2[nH]1)C(C)(C)C)C(=O)NCc1ccccc1`, 0.0269 µM; that for `COc1ccc(CN[C@@H](C(=O)NCCC(=O)NCc2nc3ccccc3[nH]2)[C@H](O)[C@H](Cc2ccccc2)NC(=O)[C@@H](NC(=O)OCc2ccccc2)C(C)C)cc1`, 0.0468 µM. With `COc1cccc(CN[C@@H](C(=O)N[C@H](C(=O)NCc2ccccc2)C(C)C)[C@H](O)[C@H](Cc2ccccc2)NC(=O)[C@@H](NC(=O)OCc2ccccc2)C(C)C)c1`, the Ki was 0.00955 µM. The result for `CC(C)[C@H](NC(=O)[C@H](NCc1ccccc1)[C@H](O)[C@H](Cc1ccccc1)NC(=O)OC(C)(C)C)C(=O)NCc1ccccc1` reads 0.158 µM. The result for `COc1ccc(CN[C@@H](C(=O)N[C@H]2c3ccccc3CC2O)[C@H](O)[C@H](Cc2ccccc2)NC(=O)[C@@H](NC(=O)c2cn3cccnc3n2)C(C)(C)C)cc1` (some centres not stated) reads 0.0229 µM; that for `COc1ccc(CN[C@@H](C(=O)N[C@H](C(=O)NCCc2ccc(S(N)(=O)=O)cc2)C(C)C)[C@H](O)[C@H](Cc2ccccc2)NC(=O)[C@@H](NC(=O)OCc2ccccc2)C(C)C)cc1`, 0.0141 µM; that for `CC(C)[C@H](NC(=O)OCc1ccccc1)C(=O)N[C@@H](Cc1ccccc1)[C@@H](O)[C@@H](NC1CCC(O)CC1)C(=O)N[C@H](C(=O)NCc1ccccc1)C(C)C` (stereo in doubt; 282808), 1.7 µM. The value for `CC(C)(C)[C@H](NC(=O)OCc1ccccc1)C(=O)N[C@@H](Cc1ccccc1)[C@@H](O)[C@@H](NCc1ccc(OCCN2CCOCC2)cc1)C(=O)N[C@H](CO)c1ccccc1` (stereo in doubt; 283267) was 0.129 µM. The compound `CC(C)(C)[C@H](NC(=O)OCc1ccccc1)C(=O)N[C@@H](Cc1ccccc1)[C@@H](O)[C@@H](NCc1ccc(OCCN2CCOCC2)cc1)C(=O)N[C@H](CO)c1ccccc1` (stereo in doubt; 283268) gave a Ki of 0.1 µM. Regarding `CC(C)[C@H](NC(=O)OCc1ccccc1)C(=O)N[C@@H](Cc1ccccc1)[C@@H](O)[C@@H](NC1CCC(O)CC1)C(=O)N[C@H](C(=O)NCc1ccccc1)C(C)C` (stereo in doubt; c), the Ki was 1.41 µM.
